These results are taken from patent publication US11306098B2, “Substituted pyrrolo[1,2-a]pyrazines and pyrrolo[1,2-a][1,4]diazepines as TREX1 inhibitors” (VENENUM BIODESIGN, LLC, priority 2019, dated 2022).

One may read the IC50 as the midpoint of a concentration-inhibition curve. Low values mean higher potency, high ones lower potency.

The target of one experiment is murine TREX1 (Mus musculus (Mouse), UniProt Q91XB0). The experiment can be described thus: TREX1 Exonuclease Assay (murine enzyme). The format is biochemical. The following applies: murine TREX1 1 nM, FAM/BHQ1-labeled DNA oligonucleotide. The procedure: (§1) The TREX1 Exonuclease assay is an exemplary in vitro assay for measuring the activity of the TREX1 inhibitors of the present invention. In this assay, TREX1 exonuclease activity was evaluated by measuring the increase in fluorescence resulting from TREX1-catalyzed removal of a quencher from the 3′ end of a FAM-labeled DNA oligonucleotide (5′FAM-CCA CGA GAG CGT-BHQ1-3′). The assay was conducted using Wild Type (WT) human or murine TREX1 enzyme constructs corresponding to amino acids 55-297 of UniProt ID Q9NSU2-1 (SEQ ID NO: 1), or amino acids 1-242 of UniProt ID Q91XB0-1 (SEQ ID NO: 2), respectively. See, e.g., Example A.
Sequence of murine TREX1 (Q91XB0 1-242): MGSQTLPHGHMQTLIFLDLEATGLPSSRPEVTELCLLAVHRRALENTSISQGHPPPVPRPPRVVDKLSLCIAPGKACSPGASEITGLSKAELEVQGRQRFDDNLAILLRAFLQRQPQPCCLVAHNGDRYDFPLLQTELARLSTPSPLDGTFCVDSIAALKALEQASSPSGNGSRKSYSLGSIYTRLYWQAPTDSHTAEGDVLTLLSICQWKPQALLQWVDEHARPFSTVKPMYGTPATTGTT
(§2) For human TREX1, the nucleotide sequence of the gene construct was codon optimized for expression in the bacterial host. The sequence was incorporated into the pMAL-c5e vector (NEB) downstream of a solubility-promoting MBP (maltose binding protein) fusion partner. The fusion protein product was expressed in E. coli strain BL21 (DE3) (Millipore) and purified in a series of chromatographic steps. Initial steps were conducted using a dextrin sepharose affinity column followed by a Q-sepharose ion exchange column (both GE Healthcare). After the second column the MBP partner was removed by incubation with enterokinase (NEB). Further purification was carried out with the second application of a Q-sepharose column followed by a Superdex 75 (GE Healthcare) size exclusion column. Finally, a heparin sepharose column (GE Healthcare) was applied to remove contaminating nucleotides. Similar methods were used in the preparation of the murine TREX1 enzyme and are described in Example B set forth below.
(§3) To evaluate the effect of compounds on TREX1 activity, test compounds were serially diluted (11-point, 3-fold) from 10 mM stock solutions and delivered to 384-well low-volume assay plates in 80 nL DMSO using an acoustic dispenser. Next, 4 μL of human TREX1 (0.5 nM), or murine TREX1 (1 nM), diluted in assay buffer (20 mM Tris pH 7.5, 5 mM MgCl2, 100 μg/mL BSA, 0.002% Triton X-100, 2 mM DTT), was added to the assay plate. After incubating for 30 minutes, 4 μL of labeled DNA oligonucleotide (500 nM) in assay buffer was added to initiate TREX1 exonuclease activity. The reaction was allowed to proceed for 45 minutes at room temperature prior to the addition of 4 μL of 150 mM EDTA to halt TREX1 activity. Assay plates were equilibrated for an additional 30 minutes and read on an EnVision Plate Reader (Perkin Elmer) to measure fluorescence emission at 535 nm following excitation at 485 nm. Fluorescence was plotted as a function of log molar compound concentration and fit to four-parameter dose-response equation to determine compound IC50.

A further experiment has as its target cleaved human TREX1 (Homo sapiens (Human), UniProt Q9NSU2). Put plainly: TREX1 Thermal Shift Binding Assay (human). Particulars: 100 μM compound, 5 μM TREX1. The procedure:
(§4) Example B is a protein thermal shift assay used to assess the binding of TREX1 inhibitors to TREX1 protein. In this assay, TREX1 protein unfolding with increasing temperature was measured in the presence and absence of TREX1 inhibitors by following the increase in fluorescence of a thiol-reactive dye (e.g BODIPY FL-cystine) as it reacts with exposed TREX1 cysteine residues. The assay was conducted using human (SEQ ID NO: 1), or murine (SEQ ID NO: 2) TREX1 protein constructs.
(§5) The thermal shift assays used recombinant protein corresponding to human (SEQ ID NO: 1) and murine (SEQ ID NO: 2) TREX1. The protein encoding plasmid contained a N-terminal MBP (maltose binding protein) tag followed by the TREX1 coding sequence within the pMAL-c5E vector. The plasmid was transfected into a BL21 (DE3) E. coli expression strain. Protein was purified from the bacterial lysate using an Amylose resin column. The MBP tag was cleaved from the purified protein using recombinant enterokinase (EMD Millipore #69066-3). The cleaved TREX1 protein was further purified on a Q-Sepharose column followed by a heparin column.
(§6) Binding of compounds to both human and murine TREX1 were measured by protein thermal shift assays. (Huynh K, Partch C L. Current Protocols in Protein Science: Analysis of protein stability and ligand interactions by thermal shift assay. Current protocols in protein science/editorial board, John E Coligan. [et al]. 2015; 79:28.9.1-28.9.14. doi:10.1002/0471140864.ps2809s79.). Thermal shift assays were conducted in sealed 96-well PCR plates containing 5 μM TREX1 protein, 100 μM compound, and 2 μM BODIPY FL-cystine (Sigma) in either 20 μL assay buffer (20 mM Tris, 7.5, 5 mM MgCl2, 0.002% Triton X-100) or 20 μL phosphate buffered saline (PBS). Using a RT-qPCR machine (Mx3005P, Stratagene) changes in fluorescence (excitation at 492 nm and emission at 516 nm) were monitored as temperature was increased from 25° C. to 96° C. at a rate of 1° C. every 2 minutes. Tm values were calculated from the first derivative plot of fluorescence intensity versus temperature. The results shown in Table 6 indicate the examples bind to human TREX1 and murine TREX1. ND indicates assay was not done.

A further experiment concerns the target human TREX1 (Homo sapiens (Human), UniProt Q9NSU2). The experiment can be described thus: TREX1 Exonuclease Assay (human enzyme). The format is biochemical. Particulars: human TREX1 0.5 nM, FAM/BHQ1-labeled DNA oligonucleotide. The procedure:
as §1, §2, §3

The target in the next experiment is cleaved mouse TREX1 (Mus musculus (Mouse), UniProt Q91XB0). The experiment can be described thus: TREX1 Thermal Shift Binding Assay (mouse). Particulars: 100 μM compound, 5 μM TREX1. The procedure: as §4, §5, §6
Sequence of cleaved mouse TREX1 (Q91XB0 1-242): as above
Where [1] appears, read: PBS, read-out: Thermal shift cleaved human TREX1, (ΔTm ° C.) PBS.
Where [2] appears, read: assay buffer, read-out: Thermal shift cleaved human TREX1, (ΔTm ° C.) Assay buffer.
The mark [3] stands for this setting: PBS, read-out: Thermal shift cleaved mouse TREX1, (ΔTm ° C.) PBS.
[4] abbreviates: assay buffer, read-out: Thermal shift cleaved mouse TREX1, (ΔTm ° C.) Assay buffer.

Structures can show the parent of a compound that is named as a salt. Where two headings read alike, the source gives them in different places.

Sequence of human TREX1 (Q9NSU2 1-242): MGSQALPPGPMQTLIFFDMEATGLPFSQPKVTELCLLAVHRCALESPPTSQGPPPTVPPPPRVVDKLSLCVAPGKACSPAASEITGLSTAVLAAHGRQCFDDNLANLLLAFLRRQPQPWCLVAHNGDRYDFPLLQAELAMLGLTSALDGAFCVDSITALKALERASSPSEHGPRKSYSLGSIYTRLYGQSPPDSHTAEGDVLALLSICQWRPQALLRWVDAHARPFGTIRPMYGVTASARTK
Sequence of cleaved human TREX1 (Q9NSU2 1-242): as above

Turning to `N[C@@H]1C[C@H]2C(=O)N([C@H](CCC(=O)O)C(=O)NCc3ccc(C(F)(F)F)cc3)CCC(CCc3ccccc3)N2C1` (single isomer, unassigned) [Example 2B], the IC50 at murine TREX1 and on human TREX1 was under 1 µM throughout. The ΔTm at 100 µM on cleaved human TREX1 (setting [1]) was over 8 °C; on cleaved human TREX1 (setting [2]), over 8 °C; on cleaved mouse TREX1 (setting [3]) it was 4 to 8 °C; at cleaved mouse TREX1 (setting [4]), 4 to 8 °C.
Regarding `CC(C)C[C@H](C(=O)NCc1ccc(Cl)c(Cl)c1)N1CCC(CCc2ccccc2)N2C[C@H](N)C[C@H]2C1=O` (stereo partly drawn) [Example 1, (2R)-2-((8R,9aS)-8-amino-1-oxo-5-phenethylhexahydro-1H-pyrrolo[1,2-a][1,4]diazepin-2(3H)-yl)-N-(3,4-dichlorobenzyl)-4-methylpentanamide.HCl], the ΔTm at 100 µM on cleaved human TREX1 (setting [1]) is over 8 °C; on cleaved human TREX1 (setting [2]) it was over 8 °C; at cleaved mouse TREX1 (setting [3]), 4 to 8 °C; on cleaved mouse TREX1 (setting [4]), 4 to 8 °C.
Turning to `N[C@@H]1C[C@H]2C(=O)N([C@H](CO)C(=O)NCc3ccc(Cl)c(Cl)c3)CCC(CCc3ccccc3)N2C1` (stereo partly drawn) [Example 3, (2R)-2-((8R,9aS)-8-amino-1-oxo-5-phenethylhexahydro-1H-pyrrolo[1,2-a][1,4]diazepin-2(3H)-yl)-N-(3,4-dichlorobenzyl)-3-hydroxypropanamide.HCl], the ΔTm at 100 µM on cleaved human TREX1 (setting [1]) is over 8 °C; at cleaved human TREX1 (setting [2]), over 8 °C; on cleaved mouse TREX1 (setting [3]), 4 to 8 °C; at cleaved mouse TREX1 (setting [4]), 4 to 8 °C.
On to `N[C@@H]1C[C@H]2C(=O)N([C@H](Cc3ccc(O)cc3)C(=O)NCc3ccc(Cl)c(Cl)c3)CCC(CCc3ccccc3)N2C1` (some centres unmarked) [Example 4], for which the IC50 at murine TREX1 and against human TREX1 was under 1 µM throughout. Besides, the ΔTm at 100 µM on cleaved human TREX1 (setting [1]) is over 8 °C; on cleaved human TREX1 (setting [2]), over 8 °C; at cleaved mouse TREX1 (setting [3]) it was 4 to 8 °C; on cleaved mouse TREX1 (setting [4]), 4 to 8 °C.
With `CCC[C@H](CNS(=O)(=O)c1ccc(Cl)c(Cl)c1)N1CCC(CCc2ccccc2)N2C[C@H](N)C[C@H]2C1=O` (some centres unmarked) [Example 40], the values for the IC50 against murine TREX1 and at human TREX1 were 1 to 9.99 µM and under 1 µM, respectively.
The corresponding values for `CC(C)C[C@H](C(=O)NCc1ccc(Cl)c(Cl)c1)N1CCC(CS(=O)(=O)c2ccccc2)N2C[C@H](N)C[C@H]2C1=O` (some centres unmarked) [Example 41] are 10 to 100 µM and 1 to 9.99 µM.
The corresponding values for `N#CCC[C@H](C(=O)NCc1ccc(Cl)c(Cl)c1)N1CCC(CCc2ccccc2)N2C[C@H](N)C[C@H]2C1=O` (some centres unmarked) [Example 45] are under 1 µM and under 1 µM.
The matching figures for `CC(C)C[C@H](C(=O)NCc1ccc(Cl)cc1)N1CCC(CCc2ccccc2)N2C[C@H](N)C[C@H]2C1=O` (some centres unmarked) [Example 46]: 1 to 9.99 µM and under 1 µM.
As to `CC(C)C[C@H](C(=O)NCc1ccc(Cl)c(Cl)c1)N1CCC(CCc2ccccc2)N(CCN)CC1=O` (some centres unmarked) [Example 47], the IC50 at murine TREX1 was 10 to 100 µM; against human TREX1 it was 1 to 9.99 µM.
Consider `Cc1nnc(CC[C@H](C(=O)NCc2ccc(Cl)c(Cl)c2)N2CCC(CCc3ccccc3)N3C[C@H](N)C[C@H]3C2=O)[nH]1` (some centres unmarked) [Example 48], for which the IC50 against murine TREX1 and on human TREX1 was under 1 µM each time.
